The text below walks through data of US8637526B2, “Pyrazolopyrimidine JAK inhibitor compounds and methods” (Genentech, Inc., priority 2008, dated 2014).

For experiment [1], the system named is Set-2 cells, which express the JAK2V617F mutant protein. As to the kind of experiment: STAT5 phosphorylation in Set-2 cells (JAK2-dependent signaling, MSD). The experiment is classed as cell-based. To be noted: Homo sapiens, SET-2, 1 h, read-out: pSTAT5 SET2 EC50. The protocol:
The activities of compounds were determined in cell-based assays that are designed to measure JAK2-dependent signaling or proliferation. Compounds were serially diluted in DMSO and incubated with Set-2 cells (German Collection of Microorganisms and Cell Cultures (DSMZ); Braunschweig, Germany), which express the JAK2V617F mutant protein, in 96-well microtiter plates for 1 hr at 37° C. in RPMI medium at a final cell density of 100,000 cells per well and a final DMSO concentration of 0.57%. Compound-mediated effects on STATS phosphorylation were then measured in the lysates of incubated cells using the Meso Scale Discovery (MSD) technology (Gaithersburg, Md.) according to the manufacturer's protocol and EC50 values were determined. Alternatively, serially diluted compounds were added to 384-well microtiter plates in RPMI medium with 10% fetal bovine serum (Invitrogen Corp.; Carlsbad, Calif.) at a final cell density of 2500 cells per well and a final DMSO concentration of 0.3% and incubated at 37° C. for 72 hours. Cell viability was then determined using the CellTiter-Glo® Luminescent Cell Viability Assay according to the manufacturer's protocol (Promega; Madison, Wis.) and EC50 values were determined.

In experiment [2] the test system is TF-1 cells. As to the kind of experiment: IL-6-stimulated STAT3 phosphorylation in TF-1 cells (JAK1-dependent signaling, MSD). It counts as cell-based. To be noted: Homo sapiens, TF-1, 0.5 h, read-out: IL6-pSTAT3 TF1 EC50. The procedure: (§1) The activities of compounds were determined in cell-based assays that are designed to measure JAK1 or JAK2-dependent signaling. Compounds were serially diluted in DMSO and incubated with TF-1 cells (American Type Culture Collection (ATCC); Manassas, Va.) in 384-well microtiter plates in OptiMEM medium without phenol red, 1% Charcoal/Dextran stripped FBS, 0.1 mM NEAA, 1 mM sodium pyruvate (Invitrogen Corp.; Carlsbad, Calif.) at a final cell density of 100,000 cells per well and a final DMSO concentration of 0.2%. Human recombinant IL-6 (R&D systems; Minneapolis, Minn.) or EPO (Invitrogen Corp.; Carlsbad, Calif.) was then added at a final concentration of 30 ng/mL or 10 Units/mL, respectively, to the microtiter plates containing the TF-1 cells and compound and the plates were incubated for 30 min at 37° C. Compound-mediated effects on STAT3 or STATS phosphorylation were then measured in the lysates of cells incubated in the presence of IL-6 or EPO, respectively, using the Meso Scale Discovery (MSD) technology (Gaithersburg, Md.) according to the manufacturer's protocol and EC50 values were determined.

The next experiment concerns NK92 cells. As to the kind of experiment: IL-12-stimulated STAT4 phosphorylation in NK92 cells (TYK2-dependent signaling, MSD). The settings on record: NK92, 1 h, read-out: IL12-pSTAT4 NK92 EC50. The experiment is classed as cell-based. The procedure: The activities of compounds were determined in cell-based assays that are designed to measure TYK2-dependent signaling. Compounds were serially diluted in DMSO and incubated with NK92 cells (American Type Culture Collection (ATCC); Manassas, Va.) in 96-well microtiter plates in RPMI medium at a final cell density of 100,000 cells per well and a final DMSO concentration of 0.57%. Human recombinant IL-12 (R&D systems; Minneapolis, Minn.) was then added at a final concentration of 10 ng/mL to the microtiter plates containing the NK92 cells and compound and the plates were incubated for 1 hr at 37° C. Compound-mediated effects on STAT4 phosphorylation were then measured in the lysates of incubated cells using the Meso Scale Discovery (MSD) technology (Gaithersburg, Md.) according to the manufacturer's protocol and EC50 values were determined

The target in the next experiment is human JAK1 kinase domain (Homo sapiens (Human), UniProt P23458). As to the kind of experiment: JAK1 Inhibition Assay Protocol (Caliper LabChip peptide phosphorylation). It counts as biochemical. The settings on record: enzymatic activity, 25 uM ATP. An excerpt: The catalytically active kinase domain of human JAK1, JAK2, JAK3 or TYK2 was purified from extracts of SF9 insect cells infected with a recombinant baculovirus expression vector encoding the human JAK1, JAK2, JAK3 or TYK2 kinase domains (JAK1 amino acid residues N852-D1154 according to the numbering of GenBank sequence accession number P23458, JAK2 amino acid residues D812-G1132 according to the numbering of GenBank sequence accession number NP_004963.1; JAK3 amino acid residues S783-S1124 according to the numbering of GenBank sequence accession number P52333, and TYK2 amino acid residues N873-C1187 according to the numbering of GenBank sequence accession number P29597). The activity of the JAK1, JAK2, JAK3 or TYK2 kinase domains can be measured by a number of direct and indirect methods, including quantification of phosphorylation of peptide substrates derived from the human JAK3 protein (Saltzman et al., Biochem. Biophys. Res. Commun. 246:627-633 (2004)). The activity of the JAK1, JAK2, JAK3 or TYK2 kinase domains was measured in vitro by monitoring phosphorylation of JAK3 derived peptides using the Caliper LabChip technology.
Sequence of human JAK1 kinase domain (P23458 852-1154): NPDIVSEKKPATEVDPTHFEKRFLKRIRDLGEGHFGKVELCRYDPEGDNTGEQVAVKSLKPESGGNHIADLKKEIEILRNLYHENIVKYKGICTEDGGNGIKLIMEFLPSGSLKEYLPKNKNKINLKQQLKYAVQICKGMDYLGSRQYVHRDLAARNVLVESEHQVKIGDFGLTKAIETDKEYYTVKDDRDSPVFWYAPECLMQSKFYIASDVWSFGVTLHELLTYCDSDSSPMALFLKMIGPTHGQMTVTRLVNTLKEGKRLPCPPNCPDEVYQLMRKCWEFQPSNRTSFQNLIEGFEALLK
(§2) The activity of the isolated JAK1 or TYK2 kinase domain was measured by monitoring phosphorylation of a peptide derived from JAK3 ([…] fluorescently labeled on the N-terminus with 5-carboxyfluorescein using the Caliper LabChip technology (Caliper Life Sciences, Hopkinton, Mass.). […] Reactions were incubated at 22° C. in 384-well polypropylene microtiter plates for 30 minutes and then stopped by addition of 25 uL of an EDTA containing solution (100 mM Hepes pH 7.2, 0.015% Brij-35, 150 mM EDTA), resulting in a final EDTA concentration of 50 mM. After termination of the kinase reaction, the proportion of phosphorylated product was determined as a fraction of total peptide substrate using the Caliper LabChip 3000 according to the manufacturer's specifications. Ki values were then determined using the Morrison tight binding model (Morrison, J. F., Biochim. Biophys. Acta. 185:269-296 (1969); William, J. W. and Morrison, J. F., Meth. Enzymol., 63:437-467 (1979)).

Another experiment has as its target human JAK3 kinase domain (Homo sapiens (Human), UniProt P52333). As to the kind of experiment: biochemical. It counts as biochemical. The settings on record: enzymatic activity, 5 uM ATP; read-out: JAK3 Ki. The procedure: The activity of the JAK1, JAK2, JAK3 or TYK2 kinase domains was measured in vitro by monitoring phosphorylation of JAK3 derived peptides using the Caliper LabChip technology.
as §2, with “JAK3” for “JAK1 or TYK2”, “specifications.” for “specifications. Ki values were then determined using the Morrison tight binding model (Morrison, J. F., Biochim. Biophys. Acta. 185:269-296 (1969); William, J. W. and Morrison, J. F., Meth. Enzymol., 63:437-467 (1979)).”

Experiment [3] relates to TF-1 cells. As to the kind of experiment: EPO-stimulated STAT5 phosphorylation in TF-1 cells (JAK2-dependent signaling, MSD). It counts as cell-based. To be noted: Homo sapiens, TF-1, 0.5 h, read-out: EPO pSTAT5 TF1 EC50. The protocol:
as §1

Sequence of human JAK3 kinase domain (P52333 783-1124): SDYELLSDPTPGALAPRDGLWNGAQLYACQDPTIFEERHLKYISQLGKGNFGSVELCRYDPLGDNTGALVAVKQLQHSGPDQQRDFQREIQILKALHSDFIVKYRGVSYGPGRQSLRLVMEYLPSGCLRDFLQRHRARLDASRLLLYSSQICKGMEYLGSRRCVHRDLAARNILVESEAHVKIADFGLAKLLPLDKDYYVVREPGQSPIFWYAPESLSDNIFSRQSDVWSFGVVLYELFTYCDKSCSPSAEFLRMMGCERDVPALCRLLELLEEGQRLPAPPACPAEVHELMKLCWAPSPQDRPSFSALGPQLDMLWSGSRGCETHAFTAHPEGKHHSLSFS

As to `Cc1ccc(C)c(-c2nn(C)cc2NC(=O)c2cnn3ccc(N)nc23)c1` [Example 225, 5-amino-N-(3-(2,5-dimethylphenyl)-1-methyl-1H-pyrazol-4-yl)pyrazolo[1,5-a]pyrimidine-3-carboxamide], the concentration giving a half-maximal response (EC50) in experiment [1] stood at 12.8 nM; in the experiment with TF-1 cells [2], 130 nM; in the experiment with NK92 cells it was 119 nM.
As to `Nc1ccn2ncc(C(=O)Nc3conc3-c3cccc(Cl)c3)c2n1` [Example 250, 5-Amino-pyrazolo[1,5-a]-pyrimidine-3-carboxylic acid [3-(3-chloro-phenyl)-isoxazol-4-yl]-amide], the results for the Ki at human JAK1 kinase domain and at human JAK3 kinase domain were 28.4 nM and 55.6 nM, respectively. Also, the values for the concentration for a half-maximal effect (EC50) with TF-1 cells [3], in the experiment with TF-1 cells [2] and in the experiment with NK92 cells were 340 nM, 839 nM and 105 nM, respectively.
